# Measurements reported in US20240018146A1, “COMPOSITIONS AND METHODS OF USING THE SAME FOR TREATMENT OF NEURODEGENERATIVE AND MITOCHONDRIAL DISEASE” (MITOKININ, INC., priority 2020, published 2024).
# Where two headings read alike, the source gives them in different places.
# Assays:
# Type in all cases: cell-based
# [1] = Mitotoxicity / Mitotox safety margin (therapeutic window)
# [2] = tested on: HeLa MKYP cells; assay: Cell death measured by DAPI staining, with 1 μM FCCP/oligomycin or no toxin (no FO)
# In short: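 HeLa MKYP cells were treated with compounds alongside 1 μM FCCP/oligomycin or no toxin for 6 or 6.5 h. Cell death was scored by DAPI staining, with H2O2 treatment as the death control.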
# [3] = tested on: HeLa MKYP cells; assay: Human mitophagy assay (HeLa mKeima assay, FACS)
# In short: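 HeLa cells carrying the pH-sensitive mtKeima tag incubated 16 h with compound at several concentrations, then 1 uM FCCP/oligomycin for 6 h. FACS detects mitochondria in lysosomes through the Keima emission shift, quantified as percentage of cells in mitophagy.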
# [4] = Homo sapiens, HeLa, read-out: Mitophagy induction EC50
# [5] = read-out: Mitophagy induction EC50
Structure (SMILES),Mito-Safety Index (highest safe dose/EC50) [1],Highest safe dose (μM) (mitotox or cytotox) [1],Highest safe dose (cytotoxicity; no FO; safe means DAPI+ <20%) ([2]; no FO),Max % death with 1 μM FO [2],"EC50 [3, 4]",mitotoxicity ([1]; FIG. 5-7),Mitotox safety margin (Therapeutic window) [1],"Max cell death at 25 μM compound, 1 uM FO (%) ([2]; 25 μM compound, 1 uM FO)","Cell death at 25 μM (no FO) (%) ([2]; 25 μM compound, no FO)","EC50 ([3]; HeLa mKeima assay, read-out: Mitophagy EC50 (HeLa mKeima assay))","EC50 [3, 5]"
FC(F)(F)c1cc2c(N[C@H]3c4ccccc4OC[C@H]3C3CCCOC3)ncnc2[nH]1 (mixture of isomers) [EP-0041004],25.46,25.0 µM,25.0 µM,71.7%,0.98 µM,,,,,,
"Oc1ccc2c(c1)CCC[C@H]2Nc1ncnc2[nH]c(C(F)(F)F)cc12 (single isomer, unassigned) [EP-0038508]",,,,,,low mitotoxicity,,,,,
"Fc1ccc2c(c1)CC[C@H](N1CCOCC1)[C@H]2Nc1ncnc2[nH]c(C3CC3)cc12 (single isomer, unassigned) [EP-0039746]",9.48,2.8 µM,25.0 µM,13.4%,,,+++ (+++ = 20 < x < 30),15.3%,3.3%,0.25 µM,0.29 µM
"c1ccc2c(c1)CC[C@H](N1CCOCC1)[C@H]2Nc1ncnc2[nH]c(C3CC3)cc12 (single isomer, unassigned) [EP-0040108]",138.83,18.3 µM,25.0 µM,19.1%,0.13 µM,,,,,,
"c1ccc2c(c1)CC[C@@H](N1CCOCC1)[C@@H]2Nc1ncnc2[nH]c(C3CC3)cc12 (single isomer, unassigned) [EP-0040109]",1.01,25.0 µM,25.0 µM,7.9%,24.8 µM,,,,,,
"Fc1ccc2c(c1)OC[C@H](N1C[C@H]3COC[C@H]3C1)[C@H]2Nc1ncnc2[nH]c(C3CC3)cc12 (single isomer, unassigned) [EP-0040328]",84.78,16.0 µM,25.0 µM,16.0%,,,,,,,0.19 µM
"c1ccc2c(c1)OC[C@@H](N1C[C@H]3COC[C@H]3C1)[C@@H]2Nc1ncnc2[nH]c(C3CC3)cc12 (single isomer, unassigned) [EP-0040392]",153.83,16.6 µM,25.0 µM,11.8%,0.11 µM,,,,,,
"C[C@@H]1CN([C@H]2CCc3ccccc3[C@@H]2Nc2ncnc3[nH]c(C(F)(F)F)cc23)CCO1 (single isomer, unassigned) [EP-0040491]",49.72,3.7 µM,25.0 µM,19.4%,0.07 µM,,,,,,
"C[C@@H]1CN([C@H]2CCc3ccccc3[C@@H]2Nc2ncnc3[nH]c(C(F)(F)F)cc23)C[C@H](C)O1 (single isomer, unassigned) [EP-0040493]",103.09,1.7 µM,25.0 µM,14.8%,0.02 µM,,,,,,
"C[C@@H]1CN([C@H]2CCc3ccccc3[C@@H]2Nc2ncnc3[nH]c(C4CC4)cc23)CCO1 (single isomer, unassigned) [EP-0040496]",82.87,1.3 µM,25.0 µM,15.6%,0.02 µM,,,,,,
"C[C@@H]1CN([C@H]2CCc3ccccc3[C@@H]2Nc2ncnc3[nH]c(C4CC4)cc23)C[C@H](C)O1 (single isomer, unassigned) [EP-0040498]",30.45,0.7 µM,25.0 µM,16.5%,0.02 µM,,,,,,
"Fc1cccc2c1CC[C@@H](N1C[C@H]3COC[C@H]3C1)[C@@H]2Nc1ncnc2[nH]c(C(F)(F)F)cc12 (single isomer, unassigned) [EP-0040506]",44.10,2.2 µM,25.0 µM,41.0%,0.05 µM,,,,,,
"C[C@H]1CN([C@H]2CCc3ccccc3[C@@H]2Nc2ncnc3[nH]c(C4CC4)cc23)CCO1 (single isomer, unassigned) [EP-0040511]",53.66,3.5 µM,25.0 µM,13.1%,0.07 µM,,,,,,
"Fc1cccc2c1CC[C@@H](N1C[C@H]3COC[C@H]3C1)[C@@H]2Nc1ncnc2[nH]c(C3CC3)cc12 (single isomer, unassigned) [EP-0040577]",86.01,1.3 µM,25.0 µM,28.6%,0.02 µM,,,,,,
